Holding throughout (assay type): cell-based
Test [1] concerns the target EP2 subtype of the human PGE2 receptor (Homo sapiens, UniProt P43116). Nature of the test: cAMP antagonism test on the human EP2 receptor (HTRF cAMP detection). Conditions: hEP2 receptor, read-out: Antagonism hEP2 IC50. From the text: 1. Detection of Antagonism to the Human Prostaglandin E2 (Subtype EP2) Receptor Signal
The binding of PGE2 to the EP2 subtype of the human PGE2 receptor induces the activation of membrane-located adenylate cyclases and leads to the formation of cAMP. In the presence of the phosphodiesterase inhibitor IBMX, the cAMP accumulated owing to this stimulation and released by cell lysis is used in a competitive detection method. In this test, the cAMP present in the lysate competes with a fluorescence-labelled cAMP (cAMP-d2) for binding to an Eu cryptate-labelled anti-cAMP antibody.
(§1) In the absence of cellular cAMP, a maximal signal is produced, which is attributable to the binding of this cAMP-d2 molecule to the antibody. After excitation of the […] at 337 nm, there is a fluorescence resonance energy transfer (FRET) to the Eu cryptate molecules of the anti-cAMP antibody (labelled therewith), followed by a long-lasting emission signal at 665 nm (and at […]). Both signals are measured in a suitable measurement instrument with a time delay, i.e. after decay of the background fluorescence. Any increase in the low FRET signal caused by prostaglandin E2 administration (measured as well ratio change=emission665 nm/emission620 nm*10000) indicates the action of antagonists.
1.2.1. Test for Antagonism (Data Per Well of a 384-Well Plate):
To a test plate with the substance solutions already added (0.05 μl; 100% DMSO, concentration range from 0.8 nM-16.5 μM) were added 4 μl of a cAMP-d2/cell suspension (625000 cells/ml). After a 20-minute preincubation at room temperature (RT), 2 μl of a 3×PGE2 solution (1.5 nM, in PBS-IBMX) were added and incubated in the presence of the agonist for a further 60 mins at RT (volume: ˜6 μl). Next the reaction was stopped by addition of 2 μl of lysis buffer and incubated for a further 20 mins at RT before the actual measurement (volume: ˜8 μl).
On the technique in general: Time-resolved FRET reads energy transfer from a long-lived donor to a nearby acceptor.

The target in test [2] is EP4 subtype of the human PGE2 receptor (Homo sapiens, UniProt P35408). Nature of the test: cAMP antagonism test on the human EP4 receptor (HTRF cAMP detection). Particulars: selectivity towards hEP4, IC50 measured by cAMP antagonism test.
Source text: 2. Detection of Antagonism to the Human Prostaglandin E2 (Subtype EP4) Receptor Signal
The binding of PGE2 to the EP4 subtype of the human PGE2 receptor induces the activation of membrane-located adenylate cyclases and leads to the formation of cAMP. In the presence of the phosphodiesterase inhibitor IBMX, the cAMP accumulated owing to this stimulation and released by cell lysis is used in a competitive detection method. In this test, the cAMP present in the lysate competes with a fluorescence-labelled cAMP (cAMP-d2) for binding to an Eu cryptate-labelled anti-cAMP antibody.
as §1, with “cAMP” for “cAMP,”
2.2.1. Test for Antagonism (Data Per Well of a 384-Well Plate):
To a test plate with the substance solutions already added (0.05 μl; 100% DMSO, concentration range from 0.8 nM-16.5 μM) were added 4 μl of a cAMP-d2/cell suspension (312500 cells/ml). After a 20-minute preincubation at room temperature (RT), 2 μl of a 3×PGE2 solution (0.3 nM, in PBS-IBMX) were added and incubated in the presence of the agonist for a further 60 mins at RT (volume: ˜6 μl). Next the reaction was stopped by addition of 2 μl of lysis buffer and incubated for a further 20 mins at RT before the actual measurement (volume: ˜8 μl).

Another test addresses T1, human PGD receptor (Homo sapiens, UniProt Q13258).
T1 sequence (Q13258 1-359): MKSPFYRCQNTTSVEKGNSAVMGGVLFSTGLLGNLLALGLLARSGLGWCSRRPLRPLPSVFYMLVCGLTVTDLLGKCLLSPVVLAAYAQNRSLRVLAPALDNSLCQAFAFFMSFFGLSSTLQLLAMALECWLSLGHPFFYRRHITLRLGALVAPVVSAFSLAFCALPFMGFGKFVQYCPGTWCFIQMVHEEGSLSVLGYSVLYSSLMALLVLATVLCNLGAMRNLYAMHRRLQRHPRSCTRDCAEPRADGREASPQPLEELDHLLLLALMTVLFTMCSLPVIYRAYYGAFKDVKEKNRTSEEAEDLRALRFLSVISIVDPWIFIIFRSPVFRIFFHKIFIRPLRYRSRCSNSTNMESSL
Description: cAMP antagonism test on the human prostaglandin D receptor (HTRF cAMP detection). Particulars: selectivity towards hDP, IC50 measured by cAMP antagonism test.
Source text: 3. Detection of Antagonism to the Human Prostaglandin D Receptor Signal
The binding of prostaglandin D2 to the human PGD receptor induces the activation of membrane-located adenylate cyclases and leads to the formation of cAMP. In the presence of the phosphodiesterase inhibitor IBMX, the cAMP accumulated owing to this stimulation and released by cell lysis is used in a competitive detection method. In this test, the cAMP present in the lysate competes with a fluorescence-labelled cAMP (cAMP-d2) for binding to an Eu cryptate-labelled anti-cAMP antibody.
as §1
3.2.1. Test for Antagonism (Data Per Well of a 384-Well Plate):
To a test plate with the substance solutions already added (0.05 μl; 100% DMSO, concentration range from 0.8 nM-16.5 μM) were added 4 μl of a cAMP-d2/cell suspension (625000 cells/ml). After a 20-minute preincubation at room temperature (RT), 2 μl of a 3×PGD2 solution (6 nM, in PBS-IBMX) were added and incubated in the presence of the agonist for a further 30 mins at RT (volume: ˜6 μl). Next the reaction was stopped by addition of 2 μl of lysis buffer and incubated for a further 20 mins at RT before the actual measurement (volume: ˜8 μl).

Sequence of EP2 subtype of the human PGE2 receptor (P43116 whole entry): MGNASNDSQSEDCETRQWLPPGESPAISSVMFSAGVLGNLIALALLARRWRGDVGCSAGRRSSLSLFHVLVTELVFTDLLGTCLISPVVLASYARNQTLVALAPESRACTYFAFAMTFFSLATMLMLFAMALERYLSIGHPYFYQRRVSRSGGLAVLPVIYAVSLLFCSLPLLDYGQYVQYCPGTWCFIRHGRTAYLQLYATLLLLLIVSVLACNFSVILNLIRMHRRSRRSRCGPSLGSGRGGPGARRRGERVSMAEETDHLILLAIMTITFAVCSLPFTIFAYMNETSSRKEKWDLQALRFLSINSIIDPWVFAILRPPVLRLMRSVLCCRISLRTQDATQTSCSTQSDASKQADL
Sequence of EP4 subtype of the human PGE2 receptor (P35408 whole entry): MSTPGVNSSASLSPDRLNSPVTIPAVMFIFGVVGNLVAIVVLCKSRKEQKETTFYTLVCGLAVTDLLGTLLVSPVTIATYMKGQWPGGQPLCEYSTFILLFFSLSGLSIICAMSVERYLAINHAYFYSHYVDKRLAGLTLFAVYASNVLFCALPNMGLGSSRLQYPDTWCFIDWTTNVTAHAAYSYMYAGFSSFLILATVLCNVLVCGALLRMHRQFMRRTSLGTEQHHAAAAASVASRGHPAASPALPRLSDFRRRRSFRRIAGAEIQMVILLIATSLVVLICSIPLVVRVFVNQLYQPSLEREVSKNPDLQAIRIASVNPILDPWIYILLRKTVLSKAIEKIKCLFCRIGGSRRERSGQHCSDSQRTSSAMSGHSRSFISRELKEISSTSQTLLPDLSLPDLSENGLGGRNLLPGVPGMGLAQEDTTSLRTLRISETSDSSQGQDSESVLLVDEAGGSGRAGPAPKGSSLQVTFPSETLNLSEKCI

Turning to `Cc1c(C(=O)NCC(F)(F)F)ccc2nn(CC3CCN(C(=O)c4ccc(Oc5cccc(F)c5)cc4)CC3)cc12` [Example 307, 2-({1-[4-(3-fluorophenoxy)benzoyl]piperidin-4-yl}methyl)-4-methyl-N-(2,2,2-trifluoroethyl)-2H-indazol-5-carboxamide], the IC50 in test [1] was 30.6 nM. Further, the “Selectivity hEP2/hEP4” value in test [2] was “xxx (xxx > 100)”. The “Selectivity hEP2/hDP” value at human PGD receptor was “xxx (xxx > 100)”.

For `Cc1cc2nn(CC3CN(C(=O)c4ccc(Cl)cc4)C3)cc2cc1C(=O)NCC1CCCCO1` (racemic) [Example 191, (+/−)-2-{[1-(4-chlorobenzoyl)azetidin-3-yl]methyl}-6-methyl-N-(3,4,5,6-tetrahydro-2H-pyran-2-ylmethyl)-2H-indazol-5-carboxamide], the IC50 in test [1] amounted to 47.1 nM. For the same molecule, in test [2], the “Selectivity hEP2/hEP4” value is given as “xxx (xxx > 100)”. In addition, on human PGD receptor, the “Selectivity hEP2/hDP” value is reported as “xxx (xxx > 100)”.

For the molecule `Cc1c(C(=O)NCC(F)(F)F)ccc2nn(CC3CCN(C(=O)c4nc5ccccc5o4)CC3)cc12` [Example 299, 2-{[1-(benzoxazol-2-ylcarbonyl)piperidin-4-yl]methyl}-4-methyl-N-(2,2,2-trifluoroethyl)-2H-indazol-5-carboxamide], the IC50 in test [1] turned out to be 541 nM. For the same molecule, in test [2], the “Selectivity hEP2/hEP4” value is given as “xx (xx: 10-100)”. Moreover, the “Selectivity hEP2/hDP” value on human PGD receptor is recorded as “xx (xx: 10-100)”.

With `Cc1c(C(=O)NCC2COCCO2)ccc2nn(CC3CCN(C(=O)c4ccc(Oc5ccc(C(F)(F)F)cc5)cc4)CC3)cc12` (single isomer, unassigned) [Example 418, (R or S)—N-(1,4-dioxan-2-ylmethyl)-4-methyl-2-[(1-{4-[4-(trifluoromethyl)-phenoxy]benzoyl}piperidin-4-yl)methyl]-2H-indazol-5-carboxamide], in test [1], the IC50 is 15.8 nM. In test [2], the “Selectivity hEP2/hEP4” value is reported as “xxx (xxx > 100)”. For the same molecule, the “Selectivity hEP2/hDP” value at human PGD receptor is recorded as “xxx (xxx > 100)”.

Take `Cc1c(C(=O)NCCSC(F)(F)F)ccc2nn(C[C@@H]3CCN(C(=O)c4ccc(Cl)cc4)C3)cc12` [Example 220, 2-{[(R)-1-(4-chlorobenzoyl)pyrrolidin-3-yl]methyl}-4-methyl-N-{2-[(trifluoromethyl)sulphanyl]ethyl}-2H-indazol-5-carboxamide]: the 50% inhibitory concentration (IC50) in test [1] is 147 nM. The “Selectivity hEP2/hEP4” value in test [2] is listed as “xxx (xxx > 100)”. Also, the “Selectivity hEP2/hDP” value on human PGD receptor is reported as “xxx (xxx > 100)”.

On to `COc1c(C(=O)NCCN2CCC(F)(F)C2)ccc2nn(CC3CN(C(=O)c4ccc(Cl)cc4)C3)cc12` [Example 260, 2-{[1-(4-chlorobenzoyl)azetidin-3-yl]methyl}-N-[2-(3,3-difluoropyrrolidin-1-yl)ethyl]-4-methoxy-2H-indazol-5-carboxamide], for which the IC50 in test [1] was 8.02 nM. Moreover, the “Selectivity hEP2/hEP4” value in test [2] is “xxx (xxx > 100)”. Moreover, on human PGD receptor, the “Selectivity hEP2/hDP” value is “xxx (xxx > 100)”.

For `COCCNC(=O)c1ccc2nn(CC3CN(C(=O)c4cc5cc(OC)ccc5n4C)C3)cc2c1C` [Example 172, N-(2-methoxyethyl)-2-({1-[(5-methoxy-1-methyl-1H-indol-2-yl)carbonyl]azetidin-3-yl}methyl)-4-methyl-2H-indazol-5-carboxamide], the IC50 in test [1] is 3.16 nM. Moreover, the “Selectivity hEP2/hEP4” value in test [2] is “xxx (xxx > 100)”. For the same molecule, the “Selectivity hEP2/hDP” value on human PGD receptor was “xxx (xxx > 100)”.

Turning to `Cc1c(C(=O)NCC(F)(F)F)ccc2nn(CC3CCN(C(=O)c4cc5cc(Cl)ccc5n4C)CC3)cc12` [Example 294, 2-({1-[(5-chloro-1-methyl-1H-indol-2-yl)carbonyl]piperidin-4-yl}methyl)-4-methyl-N-(2,2,2-trifluoroethyl)-2H-indazol-5-carboxamide], the 50% inhibitory concentration (IC50) in test [1] stood at 13.2 nM. For the same molecule, the “Selectivity hEP2/hEP4” value in test [2] is reported as “xxx (xxx > 100)”. In addition, on human PGD receptor, the “Selectivity hEP2/hDP” value is “xxx (xxx > 100)”.

Turning to `Cc1c(C(=O)NCC(F)(F)F)ccc2nn(CC3CN(C(=O)c4ccc(Cl)cc4)C3)cc12` [Example 129, 2-{[1-(4-chlorobenzoyl)azetidin-3-yl]methyl}-4-methyl-N-(2,2,2-trifluoroethyl)-2H-indazol-5-carboxamide], the concentration for half-maximal inhibition (IC50) in test [1] came out at 309 nM. Further, the “Selectivity hEP2/hEP4” value in test [2] is listed as “xx (xx: 10-100)”. For the same molecule, the “Selectivity hEP2/hDP” value on human PGD receptor is given as “xx (xx: 10-100)”.

Regarding `COC(C)CNC(=O)c1cc2cn(CC3CN(C(=O)c4ccc(OC(F)(F)F)cc4)C3)nc2cc1C` (racemic) [Example 193, (+/−)-N-(2-methoxypropyl)-6-methyl-2-({1-[4-(trifluoromethoxy)benzoyl]-azetidin-3-yl}methyl)-2H-indazol-5-carboxamide], the IC50 in test [1] turned out to be 145 nM. Besides, the “Selectivity hEP2/hEP4” value in test [2] was “xxx (xxx > 100)”. For the same molecule, the “Selectivity hEP2/hDP” value on human PGD receptor is recorded as “xxx (xxx > 100)”.

In the case of `Cc1c(C(=O)NCC2COCCO2)ccc2nn(CC3CCN(C(=O)c4ccc(Cl)cc4)CC3)cc12` (racemic) [Example 413, (+/−)-2-{[1-(4-chlorobenzoyl)piperidin-4-yl]methyl}-N-(1,4-dioxan-2-ylmethyl)-4-methyl-2H-indazol-5-carboxamide], the IC50 in test [1] amounted to 37.8 nM. In test [2], the “Selectivity hEP2/hEP4” value was “xxx (xxx > 100)”. Also, at human PGD receptor, the “Selectivity hEP2/hDP” value was “xxx (xxx > 100)”.

With `Cc1c(C(=O)NCCOCC(F)(F)F)ccc2nn(CC3CCN(C(=O)c4ccc(Oc5ccc(F)cc5)cc4)CC3)cc12` [Example 92, 2-({1-[4-(4-fluoro-phenoxy)benzoyl]-piperidin-4-yl}-methyl)-4-methyl-N-[2-(2,2,2-tri-fluoroethoxy)ethyl]-2H-indazol-5-carboxamide], the concentration for half-maximal inhibition (IC50) in test [1] worked out at 12.7 nM. The “Selectivity hEP2/hEP4” value in test [2] was “xxx (xxx > 100)”. Moreover, the “Selectivity hEP2/hDP” value on human PGD receptor is “xxx (xxx > 100)”.

For orientation: IC50 means the point on the concentration scale where inhibition reaches its midpoint.

For the origin of these results see patent US9062041B2 (Bayer Intellectual Property GmbH, priority 2011, dated 2015).
